Experiments:
[1] = Un-inoculated control samples of the challenge tests in MOS / MAS; conditions: 0.10%
Method: Challenge Test with moulds was according to the following steps: 1) Add 100 g of MOS into a 250 ml sterile Schott bottle with screw-cap cover; 2) Add 0.1 to 2 ml of mould (A. niger/P. nalgiovence/E. amstelodami) inoculum to meet the target inoculum of 10^2-10^3 cfu/g of MOS into the 100 g MOS and shake to mix well; 3) Pour 35 g of the inoculated MOS into a petri dish. Perform this in duplicate; 4) Pipette 1 g of inoculated MOS from the Schott bottle into 9 ml sterile Tryptone Salt 0.1% diluents and vortex. Perform this in duplicate; 5) Plate 0.1-0.5 ml of inoculated Tryptone Salt 0.1% onto DG18 plates at appropriate dilutions by Spread Plate Method. Incubate the agar plates at 25° C. for 5 days to enumerate the initial mould count; 6) Incubate the inoculated MOS in petri dishes at 30° C. for a week. Monitor for mould growth by visual observation after one week. Perform this mould growth monitoring for a period of 4 weeks; 7) The control was prepared by repeating steps 3 to 6 without using any inoculum. The control was plated onto PCA with Cycloheximide plates.
Challenge Test with yeasts was according to the following steps: 1) Add 100 g of MOS into a 250 ml sterile Schott bottle with screw-cap cover; 2) Add 0.1 ml to 2 ml of yeast (Z. bailii) inoculum to meet the target inoculum of 10^2 to 10^3 cfu/g of MOS into the 100 g MOS and shake to mix well; 3) Pour 35 g of the inoculated MOS into two 150 ml sterile disposable polypropylene container with screw-cap cover; 4) Pipette 1 g of inoculated MOS into 9 ml sterile Tryptone Salt 0.1% diluent and vortex. Perform this in duplicate; 5) Plate 0.1 ml to 0.5 ml of inoculated Tryptone Salt 0.1% onto MEA at appropriate dilutions by Spread Plate Method. Incubate the plates at 30° C. for 3 days for the enumeration of the initial yeast count; 6) Incubate the inoculated MOS in 150 ml containers at 30° C. for a week; 7) After one week, repeat steps 4 to 6 for the weekly monitoring of Z. bailii growth behavior in MOS. Perform the monitoring for a period of 4 weeks; 8) The control was prepared by repeating steps 3 to 7 without using any inoculum.
The method for producing MAS was the same as for the MOS production in experiment 4. The preparation of the microorganism cultures as well as the challenge tests were identical to the ones described in experiment 4 as well.

Eurotium amstelodami = assay: Challenge test in fresh and aged oyster sauce (Example 3); assay type: cell-based; conditions: oyster sauce aged 0 to 6 months; KS 0.10 wt %, garlic EO 0.12 wt %; one week to at least 4 weeks after start
Method: (§1) Fresh oyster sauce (OS) tested was the commercial MAGGI Oyster Sauce product from Singapore. The OS was first pasteurized according to standard procedures. After cooling, the samples were divided into 3 groups: A) a negative control group where just 5% of sterilized water was added; B) a positive control group where potassium sorbate (KS) was added to a final concentration of 0.10 wt %; and group C) where a garlic EO acacia gum emulsion (1:1 wt ratio) was added to a final concentration of the EO of 0.12 wt %. Potassium sorbate (E number 202) is widely used as a food preservative and serves here as a positive control. Garlic EO is from Synthite Industries. It was emulsified with acacia gum in the same way as the oregano EO in Example 1.
(§2) The three OS samples were stored (i.e. aged) at 30° C. and ca. 65% relative humidity.
(§3) Microbiological challenge tests were performed directly after preparation of the OS samples, labelled as 0 month, and then after 3 and 6 months of storage, respectively. The challenge tests were performed in the same way as described in Example 1. However, instead of using Saccharomyces cerevisiae as spoilage culture, individual cultures of Aspergillus niger, Penicillium nalgiovense and Eurotium amstelodami were used.

Aspergillus niger = assay: as above; assay type: cell-based; conditions: oyster sauce aged 0 to 6 months; KS 0.10 wt %, garlic EO 0.12 wt %; one week to at least 4 weeks after start
Method: as §1, §2, §3

Penicillium nalgiovense = assay: as above; assay type: cell-based; conditions: oyster sauce aged 0 to 6 months; KS 0.10 wt %, garlic EO 0.12 wt %; one week to at least 4 weeks after start
Method: as §1, §2, §3

[2] = MAGGI Abalone Sauce, age 0 month
[3] = MAGGI Abalone Sauce, age 1 month
[4] = MAGGI Abalone Sauce, age 3 month
[5] = MAGGI Abalone Sauce, age 6 month
[6] = MAGGI Abalone Sauce, age 10 month
[7] = MAGGI Abalone Sauce, age 12 month
[8] = MAGGI Oyster Sauce, age 0 month

With C/C=C/C=C/C(=O)[O-].[K+] [KS, potassium sorbate] the “Week 0 (Log cfu/g)” value [1, 2] was less than 1.00 Log cfu/g, the “Week 1 (Log cfu/g)” value [1, 2] was less than 1.00 Log cfu/g and the “Week 2 (Log cfu/g)” value [1, 2] was less than 1.00 Log cfu/g. The “Week 3 (Log cfu/g)” value [1, 2] was less than 1.00 Log cfu/g, the “Week 4 (Log cfu/g)” value [1, 2] was less than 1.00 Log cfu/g and the “Week 0 (Log cfu/g)” value [1, 3] was less than 1.00 Log cfu/g. The “Week 1 (Log cfu/g)” value [1, 3] was less than 1.00 Log cfu/g, the “Week 2 (Log cfu/g)” value [1, 3] was less than 1.00 Log cfu/g and the “Week 3 (Log cfu/g)” value [1, 3] was less than 1.00 Log cfu/g. For the same compound, the “Week 4 (Log cfu/g)” value [1, 3] was less than 1.00 Log cfu/g, the “Week 0 (Log cfu/g)” value [1, 4] was less than 1.00 Log cfu/g and the “Week 1 (Log cfu/g)” value [1, 4] was less than 1.00 Log cfu/g. The “Week 2 (Log cfu/g)” value [1, 4] was less than 1.00 Log cfu/g, the “Week 3 (Log cfu/g)” value [1, 4] was less than 1.00 Log cfu/g and the “Week 4 (Log cfu/g)” value [1, 4] was less than 1.00 Log cfu/g. For the same compound, the “Week 0 (Log cfu/g)” value [1, 5] was less than 1.00 Log cfu/g, the “Week 1 (Log cfu/g)” value [1, 5] was less than 1.00 Log cfu/g and the “Week 2 (Log cfu/g)” value [1, 5] was less than 1.00 Log cfu/g. The “Week 3 (Log cfu/g)” value [1, 5] was less than 1.00 Log cfu/g, the “Week 4 (Log cfu/g)” value [1, 5] was less than 1.00 Log cfu/g and the “Week 0 (Log cfu/g)” value [1, 6] was less than 1.00 Log cfu/g. For the same compound, the “Week 1 (Log cfu/g)” value [1, 6] was less than 1.00 Log cfu/g, the “Week 2 (Log cfu/g)” value [1, 6] was less than 1.00 Log cfu/g and the “Week 3 (Log cfu/g)” value [1, 6] was less than 1.00 Log cfu/g. For the same compound, the “Week 4 (Log cfu/g)” value [1, 6] was less than 1.00 Log cfu/g, the “Week 0 (Log cfu/g)” value [1, 7] was less than 1.00 Log cfu/g and the “Week 1 (Log cfu/g)” value [1, 7] was less than 1.30 Log cfu/g. For the same compound, the “Week 2 (Log cfu/g)” value [1, 7] was less than 1.30 Log cfu/g, the “Week 3 (Log cfu/g)” value [1, 7] was less than 1.30 Log cfu/g and the “Week 4 (Log cfu/g)” value [1, 7] was less than 1.30 Log cfu/g. For the same compound, the “Week 0 (Log cfu/g)” value [1, 8] was less than 1.30 Log cfu/g, the “Week 1 (Log cfu/g)” value [1, 8] was less than 1.30 Log cfu/g and the “Week 2 (Log cfu/g)” value [1, 8] was less than 1.30 Log cfu/g. For the same compound, the “Week 3 (Log cfu/g)” value [1, 8] was less than 1.30 Log cfu/g, the “Week 4 (Log cfu/g)” value [1, 8] was less than 1.30 Log cfu/g and the “growth of the mould strain” value (Eurotium amstelodami) was “no detectable growth”. For the same compound, the “growth of the mould strain” value (Aspergillus niger) was “no detectable growth” and the “growth of the mould strain” value (Penicillium nalgiovense) was “no detectable growth”.
